Assay results from US10004701B2, “Methods and compositions for treating infection” (UNIVERSITY OF ROCHESTER, priority 2012, dated 2018).
Where a name gives a salt, the structure may show the parent alone. Read-outs that look alike come from different tables or passages of the source.

How the values were obtained:
Assay in all cases: AK assay 384-well format, Prestwick library screening
[1] = system: E. faecium; format: cell-based, Enterococcus faecium; settings: for fold induction at 50 µM: Enterococcus faecium, 3 h
[2] = system: K. pneumoniae; format: cell-based, Klebsiella pneumoniae; settings: for fold induction at 50 µM: Klebsiella pneumoniae, 3 h
[3] = system: S. aureus strain USA300-0114; format: cell-based, Staphylococcus aureus; settings: for fold induction at 50 µM: Staphylococcus aureus, USA300, 3 h
[4] = system: E. cloacae; format: cell-based, Enterobacter cloacae; settings: for fold induction at 50 µM: Enterobacter cloacae, 3 h
[5] = system: A. baumannii strain 98-37-09; format: cell-based, Acinetobacter baumannii; settings: for fold induction at 50 µM: Acinetobacter baumannii, 983709, 3 h
[6] = system: P. aeruginosa; format: cell-based, Pseudomonas aeruginosa; settings: for fold induction at 50 µM: Pseudomonas aeruginosa, 3 h
[7] = system: E. coli; format: cell-based, Escherichia coli; settings: for fold induction at 50 µM: Escherichia coli, 3 h
[8] = planktonic E. faecium, 50 μM final drug concentration, cutoff for positive-scoring molecules 3-fold increase, read-out: AK-based Prestwick Library Screening Results, E. faecium (increase in extracellular AK activity)
[9] = planktonic K. pneumoniae, 50 μM final drug concentration, cutoff for positive-scoring molecules 3-fold increase, read-out: AK-based Prestwick Library Screening Results, K. pneumoniae (increase in extracellular AK activity)
[10] = planktonic S. aureus, 50 μM final drug concentration, cutoff for positive-scoring molecules 3-fold increase, read-out: AK-based Prestwick Library Screening Results, S. aureus (increase in extracellular AK activity)
[11] = planktonic E. cloacae, 50 μM final drug concentration, cutoff for positive-scoring molecules 3-fold increase, read-out: AK-based Prestwick Library Screening Results, E. cloacae (increase in extracellular AK activity)
[12] = planktonic A. baumannii, 50 μM final drug concentration, cutoff for positive-scoring molecules 3-fold increase, read-out: AK-based Prestwick Library Screening Results, A. baumannii (increase in extracellular AK activity)
[13] = planktonic P. aeruginosa, 50 μM final drug concentration, cutoff for positive-scoring molecules 3-fold increase, read-out: AK-based Prestwick Library Screening Results, P. aeruginosa (increase in extracellular AK activity)
[14] = planktonic E. coli, 50 μM final drug concentration, cutoff for positive-scoring molecules 3-fold increase, read-out: AK-based Prestwick Library Screening Results, E. coli (increase in extracellular AK activity)

SMILES: COc1ccc2c(c1O)-c1c(OC)c(OC)cc3c1[C@H](C2)N(C)CC3 [Isocorydine (+)]
- AK-based Prestwick Library Screening Results, E. faecium (increase in extracellular AK activity) ([1]; planktonic E. faecium, 50 μM final drug concentration, cutoff for positive-scoring molecules 3-fold increase): 0.9
- AK-based Prestwick Library Screening Results, K. pneumoniae (increase in extracellular AK activity) ([2]; planktonic K. pneumoniae, 50 μM final drug concentration, cutoff for positive-scoring molecules 3-fold increase): 0.7
- AK-based Prestwick Library Screening Results, S. aureus (increase in extracellular AK activity) ([3]; planktonic S. aureus, 50 μM final drug concentration, cutoff for positive-scoring molecules 3-fold increase): 0.7
- AK-based Prestwick Library Screening Results, E. cloacae (increase in extracellular AK activity) ([4]; planktonic E. cloacae, 50 μM final drug concentration, cutoff for positive-scoring molecules 3-fold increase): 1.3
- AK-based Prestwick Library Screening Results, A. baumannii (increase in extracellular AK activity) ([5]; planktonic A. baumannii, 50 μM final drug concentration, cutoff for positive-scoring molecules 3-fold increase): 0.9
- AK-based Prestwick Library Screening Results, P. aeruginosa (increase in extracellular AK activity) ([6]; planktonic P. aeruginosa, 50 μM final drug concentration, cutoff for positive-scoring molecules 3-fold increase): 0.8
- AK-based Prestwick Library Screening Results, E. coli (increase in extracellular AK activity) ([7]; planktonic E. coli, 50 μM final drug concentration, cutoff for positive-scoring molecules 3-fold increase): 0.9

SMILES: CCc1cccc2c3c([nH]c12)C(CC)(CC(=O)O)OCC3 (centres unmarked) [Etodolac]
- fold induction at 50 µM ([1]; planktonic E. faecium, 50 μM final drug concentration, 384-well, cutoff for positive-scoring molecules 3-fold increase, read-out: AK-based Prestwick Library Screening Results: E. faecium (increase in extracellular AK activity)): 1.1
- fold induction at 50 µM ([2]; planktonic K. pneumoniae, 50 μM final drug concentration, 384-well, cutoff for positive-scoring molecules 3-fold increase, read-out: AK-based Prestwick Library Screening Results: K. pneumoniae (increase in extracellular AK activity)): 1.3
- fold induction at 50 µM ([3]; planktonic S. aureus, 50 μM final drug concentration, 384-well, cutoff for positive-scoring molecules 3-fold increase, read-out: AK-based Prestwick Library Screening Results: S. aureus (increase in extracellular AK activity)): 1
- fold induction at 50 µM ([4]; planktonic E. cloacae, 50 μM final drug concentration, 384-well, cutoff for positive-scoring molecules 3-fold increase, read-out: AK-based Prestwick Library Screening Results: E. cloacae (increase in extracellular AK activity)): 1.2
- fold induction at 50 µM ([5]; planktonic A. baumannii, 50 μM final drug concentration, 384-well, cutoff for positive-scoring molecules 3-fold increase, read-out: AK-based Prestwick Library Screening Results: A. baumannii (increase in extracellular AK activity)): 1.4
- fold induction at 50 µM ([6]; planktonic P. aeruginosa, 50 μM final drug concentration, 384-well, cutoff for positive-scoring molecules 3-fold increase, read-out: AK-based Prestwick Library Screening Results: P. aeruginosa (increase in extracellular AK activity)): 1.5
- fold induction at 50 µM ([7]; planktonic E. coli, 50 μM final drug concentration, 384-well, […], read-out: AK-based Prestwick Library Screening Results: E. coli (increase in extracellular AK activity)): 1.2

SMILES: C[C@]12CC[C@H]3[C@@H](CC[C@]4(O)C[C@@H](O)CC[C@]34C=O)[C@@]1(O)CC[C@@H]2C1=CC(=O)OC1 [Strophanthidin]
- fold induction at 50 µM ([1]; 50 μM final drug concentration, […], read-out: AK-based Prestwick Library Screening Results, E. faecium (fold increase in extracellular AK activity)): 1
- fold induction at 50 µM ([2]; 50 μM final drug concentration, […], read-out: AK-based Prestwick Library Screening Results, K. pneumoniae (fold increase in extracellular AK activity)): 1.1
- fold induction at 50 µM ([3]; 50 μM final drug concentration, […], read-out: AK-based Prestwick Library Screening Results, S. aureus (fold increase in extracellular AK activity)): 1.3
- fold induction at 50 µM ([4]; 50 μM final drug concentration, […], read-out: AK-based Prestwick Library Screening Results, E. cloacae (fold increase in extracellular AK activity)): 1.3
- fold induction at 50 µM ([5]; 50 μM final drug concentration, […], read-out: AK-based Prestwick Library Screening Results, A. baumannii (fold increase in extracellular AK activity)): 1.3
- fold induction at 50 µM ([6]; 50 μM final drug concentration, […], read-out: AK-based Prestwick Library Screening Results, P. aeruginosa (fold increase in extracellular AK activity)): 1.1
- fold induction at 50 µM ([7]; 50 μM final drug concentration, […], read-out: AK-based Prestwick Library Screening Results, E. coli (fold increase in extracellular AK activity)): 1.4

SMILES: C#CCN(C)CCCOc1ccc(Cl)cc1Cl [Clorgyline hydrochloride]
- fold induction at 50 µM [1, 8]: 0.7
- fold induction at 50 µM [2, 9]: 0.5
- fold induction at 50 µM [3, 10]: 0.5
- fold induction at 50 µM [4, 11]: 0.8
- fold induction at 50 µM [5, 12]: 0.6
- fold induction at 50 µM [6, 13]: 0.7
- fold induction at 50 µM [7, 14]: 0.7

SMILES: CC(C)c1cccc(C(C)C)c1O [Propofol]
- fold induction at 50 µM ([1]; read-out: AK-based Prestwick Library Screening Results, E. faecium (fold increase in extracellular AK activity)): 1
- fold induction at 50 µM ([2]; read-out: AK-based Prestwick Library Screening Results, K. pneumoniae (fold increase in extracellular AK activity)): 1.1
- fold induction at 50 µM ([3]; read-out: AK-based Prestwick Library Screening Results, S. aureus (fold increase in extracellular AK activity)): 1.2
- fold induction at 50 µM ([4]; read-out: AK-based Prestwick Library Screening Results, E. cloacae (fold increase in extracellular AK activity)): 1.7
- fold induction at 50 µM ([5]; read-out: AK-based Prestwick Library Screening Results, A. baumannii (fold increase in extracellular AK activity)): 1
- fold induction at 50 µM ([6]; read-out: AK-based Prestwick Library Screening Results, P. aeruginosa (fold increase in extracellular AK activity)): 1
- fold induction at 50 µM ([7]; read-out: AK-based Prestwick Library Screening Results, E. coli (fold increase in extracellular AK activity)): 1.3

SMILES: C[C@H]1[C@H](C)CC[C@]2(C(=O)O)CC[C@]3(C)C(=CC[C@@H]4[C@@]5(C)CC[C@H](O)C(C)(C)[C@@H]5CC[C@]43C)[C@H]12 [Ursolic acid]
- fold induction at 50 µM ([1]; 50 μM final drug concentration, 384-well format, cutoff for positive-scoring molecules 3-fold increase, read-out: AK-based Prestwick Library Screening Results, E. faecium (increase in extracellular AK activity)): 2.8
- fold induction at 50 µM ([2]; 50 μM final drug concentration, 384-well format, cutoff for positive-scoring molecules 3-fold increase, read-out: AK-based Prestwick Library Screening Results, K. pneumoniae (increase in extracellular AK activity)): 0.4
- fold induction at 50 µM ([3]; 50 μM final drug concentration, 384-well format, cutoff for positive-scoring molecules 3-fold increase, read-out: AK-based Prestwick Library Screening Results, S. aureus (increase in extracellular AK activity)): 0.1
- fold induction at 50 µM ([4]; 50 μM final drug concentration, 384-well format, cutoff for positive-scoring molecules 3-fold increase, read-out: AK-based Prestwick Library Screening Results, E. cloacae (increase in extracellular AK activity)): 0.5
- fold induction at 50 µM ([5]; 50 μM final drug concentration, 384-well format, cutoff for positive-scoring molecules 3-fold increase, read-out: AK-based Prestwick Library Screening Results, A. baumannii (increase in extracellular AK activity)): 0.5
- fold induction at 50 µM ([6]; 50 μM final drug concentration, 384-well format, cutoff for positive-scoring molecules 3-fold increase, read-out: AK-based Prestwick Library Screening Results, P. aeruginosa (increase in extracellular AK activity)): 0.4
- fold induction at 50 µM ([7]; 50 μM final drug concentration, 384-well format, cutoff for positive-scoring molecules 3-fold increase, read-out: AK-based Prestwick Library Screening Results, E. coli (increase in extracellular AK activity)): 0.4

SMILES: CCOC(=O)Oc1c(OC)cc(C(=O)O[C@@H]2C[C@@H]3CN4CCc5c([nH]c6cc(OC)ccc56)[C@H]4C[C@@H]3[C@H](C(=O)OC)[C@H]2OC)cc1OC [Syrosingopine]
- fold induction at 50 µM [1, 8]: 0.9
- fold induction at 50 µM [2, 9]: 0.5
- fold induction at 50 µM [3, 10]: 0.3
- fold induction at 50 µM [4, 11]: 0.6
- fold induction at 50 µM [5, 12]: 0.6
- fold induction at 50 µM [6, 13]: 0.5
- fold induction at 50 µM [7, 14]: 0.6

SMILES: CCN1CCN(C(=O)N[C@@H](C(=O)N[C@@H]2C(=O)N3[C@@H]2SC(C)(C)[C@@H]3C(=O)O)c2ccccc2)C(=O)C1=O [Piperacillin sodium salt]
- fold induction at 50 µM ([1]; 50 μM final drug concentration, planktonic, cutoff for positive-scoring molecules 3-fold increase, read-out: AK-based Prestwick Library Screening Results, E. faecium (fold increase in extracellular AK activity)): 0.9
- fold induction at 50 µM ([2]; 50 μM final drug concentration, planktonic, cutoff for positive-scoring molecules 3-fold increase, read-out: AK-based Prestwick Library Screening Results, K. pneumoniae (fold increase in extracellular AK activity)): 2.3
- fold induction at 50 µM ([3]; 50 μM final drug concentration, planktonic, cutoff for positive-scoring molecules 3-fold increase, read-out: AK-based Prestwick Library Screening Results, S. aureus (fold increase in extracellular AK activity)): 0.4
- fold induction at 50 µM ([4]; 50 μM final drug concentration, planktonic, cutoff for positive-scoring molecules 3-fold increase, read-out: AK-based Prestwick Library Screening Results, E. cloacae (fold increase in extracellular AK activity)): 1.3
- fold induction at 50 µM ([5]; 50 μM final drug concentration, planktonic, cutoff for positive-scoring molecules 3-fold increase, read-out: AK-based Prestwick Library Screening Results, A. baumannii (fold increase in extracellular AK activity)): 3.3
- fold induction at 50 µM ([6]; 50 μM final drug concentration, planktonic, cutoff for positive-scoring molecules 3-fold increase, read-out: AK-based Prestwick Library Screening Results, P. aeruginosa (fold increase in extracellular AK activity)): 8.7
- fold induction at 50 µM ([7]; 50 μM final drug concentration, planktonic, cutoff for positive-scoring molecules 3-fold increase, read-out: AK-based Prestwick Library Screening Results, E. coli (fold increase in extracellular AK activity)): 12.6
